Columns and labels:
in vivo [1] = settings: rat, plasma, ip, 20 mg/kg
in vivo [2] = settings: rat, plasma, ip, 20 mg/kg; remark: listed apart in the source
in vivo [3] = settings: rat, plasma, ip, 20 mg/kg; remark: listed apart in the source
in vivo [4] = settings: rat, synovial fluid, ip, 20 mg/kg

concentration at 1 h (in vivo [1]): 115 µM | concentration at 2 h (in vivo [2]): 85 µM | concentration at 4 h (in vivo [3]): 57 µM | concentration at 4 h (in vivo [4]): 3.27 µM
SMILES: NCCNS(=O)(=O)c1ccc(-c2ccc(CSc3nc4c(c(=O)[nH]3)CCC4)cc2)cc1
